For orientation: EC50 means the concentration giving half of the maximal effect. A higher EC50 goes with a need for much substance. One may read the IC50 as the concentration needed to halve the response being measured.

One assay deals with Rat whole blood (RWB). Description: LTB4 secretion assay in RWB (rat whole blood). Format: cell-based. Particulars: Rattus norvegicus. The essentials:
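Heparinized blood from male Sprague Dawley rats (6-9 weeks) diluted 1:1 in RPMI, pre-incubated 15 min at 37 °C with compound (2.5 nM to 50 uM). Stimulated with 10 uM calcium ionophore A23187 for 10 min at 37 °C, stopped with ice-cold PBS; LTB4 in supernatant quantified by EIA.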

A further assay addresses T1, human 5-LOX (Homo sapiens, UniProt P09917).
T1 construct: purchased Cayman 60402; host or cells: insect cells (lysate)
T1 sequence (P09917 1-674): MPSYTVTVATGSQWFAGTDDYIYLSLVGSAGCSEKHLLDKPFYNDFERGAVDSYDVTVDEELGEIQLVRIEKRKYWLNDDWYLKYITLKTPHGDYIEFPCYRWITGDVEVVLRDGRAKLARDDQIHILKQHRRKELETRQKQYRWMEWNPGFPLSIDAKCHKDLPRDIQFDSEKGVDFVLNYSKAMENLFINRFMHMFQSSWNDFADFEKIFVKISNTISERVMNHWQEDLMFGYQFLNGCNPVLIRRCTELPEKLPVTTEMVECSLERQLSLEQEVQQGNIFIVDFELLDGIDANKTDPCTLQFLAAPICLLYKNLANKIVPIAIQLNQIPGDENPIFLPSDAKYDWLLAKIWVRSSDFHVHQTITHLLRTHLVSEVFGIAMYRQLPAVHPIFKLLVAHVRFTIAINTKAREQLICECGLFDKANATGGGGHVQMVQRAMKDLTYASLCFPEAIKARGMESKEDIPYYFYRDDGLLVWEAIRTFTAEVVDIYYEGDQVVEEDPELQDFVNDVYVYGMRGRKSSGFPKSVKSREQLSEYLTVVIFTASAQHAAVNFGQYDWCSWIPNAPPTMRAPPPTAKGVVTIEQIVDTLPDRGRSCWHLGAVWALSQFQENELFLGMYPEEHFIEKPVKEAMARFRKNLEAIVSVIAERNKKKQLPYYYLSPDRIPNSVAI
The experiment in a line: 5-LOX enzyme activity, fluorescence method (5-HPETE, H2DCFDA). Format: biochemical. Particulars: read-out: 5-LO (IC50). The essentials:
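Compound (0.5 nM to 10 uM) pre-incubated 5 min with enzyme; reaction started with ATP (100 uM final) and arachidonic acid (3 uM final). All steps at room temperature, fluorescence read-out.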

The subject of assay [1] is Rat basophilic leukemia (RBL) cells. Description: LTB4 secretion assay in RBL (rat basophilic leukemia cells). In kind it is cell-based. Particulars: Rattus norvegicus, RBL. Put shortly:
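Cells seeded 2×10^4/well the day before, then pre-incubated 15 min at 37 °C in EMEM/0.5% FBS with compound (5 nM to 100 uM). Stimulation with 2.5 uM arachidonic acid plus 5 uM A23187 (final) for 10 min at 37 °C; LTB4 in supernatant quantified by EIA.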

Consider `Cn1c(NCc2ccc(Oc3ncc(Cl)cn3)cc2)nc2ccc(Nc3cc[nH]n3)cc21` [Compound 450], for which the EC50 (with Rat whole blood (RWB); in assay [1]) was < 10 µM in each case. Also, at human 5-LOX, the IC50 is < 1 µM.

Turning to `COc1nc(Oc2ccc(CNc3nc4ccc(NC5COC5)cc4n3C)cc2)ncc1Cl` [Compound 459], the EC50 (in the assay on Rat whole blood (RWB); in assay [1]) was 10 to 20 µM throughout. In addition, the IC50 at human 5-LOX is < 1 µM.

Regarding `Cn1c(NCc2ccc(Nc3ncc(Cl)cn3)cc2)nc2ccc(NC3COC3)cc21` [Compound 461], the concentration giving a half-maximal response (EC50) (in the assay with Rat whole blood (RWB); in assay [1]) was < 10 µM in each case. At human 5-LOX, the IC50 was < 1 µM.

Regarding `Cc1cccnc1Nc1ccc2nc(NCc3ccc(Oc4ncc(Cl)cn4)cc3)n(C)c2c1` [Compound 464], the EC50 (in the assay on Rat whole blood (RWB); in assay [1]) was < 10 µM throughout. Moreover, the IC50 at human 5-LOX lay within 1 to 10 µM.

Take `Cc1cc(Nc2ccc3nc(NCc4ccc(Oc5ncc(Cl)cn5)cc4)n(C)c3c2)nn1C` [Compound 465]: the EC50 (in the assay on Rat whole blood (RWB); in assay [1]) was < 10 µM in each case. At human 5-LOX, the IC50 was < 1 µM.

For `Cc1cc(Nc2ccc3nc(NCc4ccc(Oc5ccc(Cl)cn5)cc4)n(C)c3c2)n[nH]1` [Compound 466], the EC50 (in the assay on Rat whole blood (RWB); in assay [1]) was < 10 µM in each case. Also, on human 5-LOX, the IC50 is < 1 µM.

Consider `Cn1nc(Nc2ccc3nc(NCc4ccc(Oc5ncc(Cl)cn5)cc4)n(C)c3c2)cc1C(F)(F)F` [Compound 468], for which the EC50 (with Rat whole blood (RWB); in assay [1]) was < 10 µM in each case. In addition, the 50% inhibitory concentration (IC50) on human 5-LOX was < 1 µM.

For `Cn1c(NCc2ccc(Oc3ncc(Cl)cn3)cc2)nc2ccc(Nc3cc(C(C)(C)C)[nH]n3)cc21` [Compound 469], the EC50 (with Rat whole blood (RWB); in assay [1]) was < 10 µM throughout. Further, at human 5-LOX, the 50% inhibitory concentration (IC50) is < 1 µM.

Turning to `Cc1cc(Nc2ccc3nc(NCc4ccc(Oc5ncc(Cl)cn5)cc4)[nH]c3c2)n[nH]1` [Compound 470], the EC50 (in the assay with Rat whole blood (RWB); in assay [1]) was < 10 µM in each case. Besides, the IC50 on human 5-LOX was < 1 µM.

As to `Cc1cc(Nc2ccc3nc(NCc4ccc(N(C)c5ncc(Cl)cn5)cc4)n(C)c3c2)n[nH]1` [Compound 471], the EC50 (with Rat whole blood (RWB); in assay [1]) was < 10 µM each time. For the same molecule, at human 5-LOX, the IC50 was < 1 µM.

Turning to `Cc1cc(Nc2ccc3nc(NCc4ccc(Oc5ncc(Cl)cn5)c(Cl)c4)n(C)c3c2)n[nH]1` [Compound 473], the EC50 (with Rat whole blood (RWB); in assay [1]) was < 10 µM each time. Also, the IC50 at human 5-LOX was < 1 µM.

Turning to `Cc1[nH]nc(Nc2ccc3nc(NCc4ccc(Oc5ncc(Cl)cn5)cc4)n(C)c3c2)c1C` [Compound 474], the EC50 (in the assay on Rat whole blood (RWB); in assay [1]) was < 10 µM throughout. Besides, at human 5-LOX, the IC50 is < 1 µM.

Consider `Cn1c(NCc2ccc(Oc3ncc(Cl)cn3)cc2)nc2ccc(Nc3cc(C(F)(F)F)[nH]n3)cc21` [Compound 475], for which the EC50 (in the assay on Rat whole blood (RWB); in assay [1]) was < 10 µM throughout. Further, at human 5-LOX, the IC50 is < 1 µM.

As for `CCn1c(NCc2ccc(Oc3ncc(Cl)cn3)cc2)nc2ccc(Nc3cc(C)[nH]n3)cc21` [Compound 476], the EC50 (in the assay with Rat whole blood (RWB); in assay [1]) was < 10 µM in each case. Also, the IC50 on human 5-LOX was < 1 µM.

With `CCC(Nc1nc2ccc(Nc3cc(C)[nH]n3)cc2n1C)c1ccc(Oc2ncc(Cl)cn2)cc1` (stereo not drawn) [Compound 477], the EC50 (with Rat whole blood (RWB); in assay [1]) was < 10 µM each time. Besides, at human 5-LOX, the IC50 is < 1 µM.

As to `Cc1cc(Nc2ccc3nc(NCc4ccc(Oc5ncc(C(F)(F)F)cn5)cc4)n(C)c3c2)n[nH]1` [Compound 479], the concentration for a half-maximal effect (EC50) (in the assay with Rat whole blood (RWB); in assay [1]) was < 10 µM each time. The IC50 at human 5-LOX is < 1 µM.

On to `Cc1[nH]nc(Nc2ccc3nc(NCc4ccc(Oc5ncc(Cl)cn5)cc4)n(C)c3c2)c1Cl` [Compound 481], for which the EC50 (in the assay with Rat whole blood (RWB); in assay [1]) was < 10 µM in each case. On human 5-LOX, the IC50 was < 1 µM.

For the molecule `Cc1cc(Nc2ccc3nc(NCc4ccc(Oc5ncc(OC(F)(F)F)cn5)cc4)n(C)c3c2)n[nH]1` [Compound 482], the EC50 (in the assay with Rat whole blood (RWB); in assay [1]) was < 10 µM in each case. For the same molecule, the IC50 at human 5-LOX was < 1 µM.

In the case of `Cc1cc(Nc2ccc3nc(NCc4ccc(Nc5ncc(Cl)cn5)cc4)n(C)c3c2)n[nH]1` [Compound 486], the EC50 (in the assay on Rat whole blood (RWB); in assay [1]) was < 10 µM throughout. Moreover, the IC50 at human 5-LOX was < 1 µM.

Consider `Cn1ccc(Nc2ccc3nc(NCc4ccc(Oc5ncc(Cl)cn5)cc4)n(C)c3c2F)n1` [Compound 487], for which the EC50 (with Rat whole blood (RWB); in assay [1]) was < 10 µM in each case. Further, the IC50 at human 5-LOX is < 1 µM.

For `Cc1cc(Nc2ccc3nc(NCc4ccc(Oc5nccc(Cl)n5)cc4)n(C)c3c2)n[nH]1` [Compound 489], the EC50 (in the assay with Rat whole blood (RWB); in assay [1]) was < 10 µM in each case. In addition, at human 5-LOX, the concentration for half-maximal inhibition (IC50) is < 1 µM.

For `Cc1cc(Nc2ccc3nc(NCc4ccc(Oc5ncc(Cl)cn5)cc4)n(CCC(F)(F)F)c3c2)n[nH]1` [Compound 491], the EC50 (with Rat whole blood (RWB); in assay [1]) was < 10 µM in each case. Moreover, the IC50 on human 5-LOX is < 1 µM.

With `Cc1cnc(Nc2ccc3nc(NCc4ccc(Oc5ncc(Cl)cn5)cc4)n(C)c3c2)s1` [Compound 492], the EC50 (in the assay on Rat whole blood (RWB); in assay [1]) was < 10 µM each time. Also, at human 5-LOX, the IC50 is < 1 µM.

For the molecule `Cn1c(NCc2ccc(Oc3ncc(Cl)cn3)cc2)nc2ccc(Nc3nc(C(F)(F)F)co3)cc21` [Compound 493], the EC50 (in the assay on Rat whole blood (RWB); in assay [1]) was < 10 µM throughout. Moreover, the IC50 on human 5-LOX lay in the range of 1 to 10 µM.

Turning to `Cn1c(NCc2ccc(Oc3ncc(Cl)cn3)cc2)nc2ccc(Nc3nc(C(F)(F)F)cs3)cc21` [Compound 494], the EC50 (in the assay with Rat whole blood (RWB); in assay [1]) was < 10 µM throughout. Moreover, the IC50 at human 5-LOX is 1 to 10 µM.

Regarding `Cc1cc(Nc2ccc3nc(NCc4ccc(Oc5ccc(C(F)(F)F)cn5)cc4)n(C)c3c2)n[nH]1` [Compound 495], the EC50 (with Rat whole blood (RWB); in assay [1]) was < 10 µM in each case. For the same molecule, the IC50 on human 5-LOX is < 1 µM.

As for `Cc1cc(Nc2ccc3nc(NCc4ccc(Oc5ccc(OC(F)(F)F)cn5)cc4)n(C)c3c2)n[nH]1` [Compound 496], the 50% effective concentration (EC50) (with Rat whole blood (RWB); in assay [1]) was < 10 µM each time. For the same molecule, the IC50 at human 5-LOX was < 1 µM.

As for `Cc1cc(Nc2cnc3nc(NCc4ccc(Oc5ncc(Cl)cn5)cc4)n(C)c3c2)n[nH]1` [Compound 497], the EC50 (in the assay with Rat whole blood (RWB); in assay [1]) was > 20 µM each time. Besides, the IC50 at human 5-LOX fell in the range of 1 to 10 µM.

Take `Cc1nnc(Nc2ccc3nc(NCc4ccc(Oc5ncc(Cl)cn5)cc4)n(C)c3c2)o1` [Compound 498]: the figures for the EC50 (in the assay with Rat whole blood (RWB); in assay [1]) were < 10 µM and > 20 µM, respectively. The IC50 on human 5-LOX was > 10 µM.

`Cc1cc(Nc2cc(F)c3nc(NCc4ccc(Oc5ncc(Cl)cn5)cc4)n(C)c3c2)n[nH]1` [Compound 499]: the half-maximal effective concentration (EC50) (in the assay on Rat whole blood (RWB); in assay [1]) was < 10 µM in each case. Besides, the IC50 at human 5-LOX was < 1 µM.

As to `Cc1csc(Nc2ccc3nc(NCc4ccc(Oc5ncc(Cl)cn5)cc4)n(C)c3c2)n1` [Compound 501], the EC50 (in the assay with Rat whole blood (RWB); in assay [1]) was < 10 µM throughout. The IC50 on human 5-LOX is < 1 µM.

Turning to `Cn1nc(Nc2ccc3nc(NCc4ccc(Oc5ccc(Cl)cn5)cc4)n(C)c3c2)cc1C(F)(F)F` [Compound 502], the concentration for a half-maximal effect (EC50) (in the assay with Rat whole blood (RWB); in assay [1]) was < 10 µM in each case. For the same molecule, the IC50 on human 5-LOX lay within 1 to 10 µM.

Regarding `Cn1nc(Nc2ccc3nc(NCc4ccc(Oc5ncc(Cl)cn5)cc4F)n(C)c3c2)cc1C(F)(F)F` [Compound 503], the EC50 (with Rat whole blood (RWB); in assay [1]) was < 10 µM throughout. Also, at human 5-LOX, the IC50 is < 1 µM.

(Values after patent US11447486B2, “2-amino-benzimidazole derivatives and their use as 5-lipoxygenase and/or prostaglandin E synthase inhibitors” (INSTITUT PASTEUR KOREA, priority 2014, dated 2022).)
